Experimental data: patent US20090069180A1 (priority 2006, published 2009)

Columns and labels:
[1] = test system: Pyricularia oryzae; format: cell-based; conditions: 125 ppm, microtiter plate, absorption at 405 nm on day 7 after inoculation, relative to active compound-free control

CC1CCCN1c1nc(C#N)nc(Cl)c1/C(Br)=C(\Br)[Si](C)(C)C (stereo not drawn) [C-1, 4-Chloro-2-cyano-5-((E)-1,2-dibromo-2-trimethylsilylvinyl)-6-(2-methylpyrrolidin-1-yl)-pyrimidine]
melting point: 166 to 168 °C | relative pathogen growth [1]: 0%

CONC(=N)c1nc(Cl)c(/C(Br)=C(/Cl)Br)c(N2CCCC2C)n1 (stereo not drawn) [C-4, N-Methoxy-4-chlor-5-((E)-2-chloro-1,2-dibromovinyl)-6-(2-methyl-pyrrolidin-1-yl)-2-pyrimidinecarboximidamide]
relative pathogen growth [1]: 0%
